Reference: ChEMBL document CHEMBL5316265, “Discovery of Clinical Candidate AZD0095, a Selective Inhibitor of Monocarboxylate Transporter 4 (MCT4) for Oncology” (J Med Chem, 2023)
pIC50: −log10 of the molar value. Values after ≈ are worked out from the molar mass of the structure shown. Blank lines part the entries; values can stand above or below the compound they belong to.

Tests used:
[1] = Lipophilicity, logD of the compound at pH 7.4; assay type: physicochemical; conditions: buffer
[2] = Aqueous solubility of the compound in pH 7.4 buffer; assay type: physicochemical
[3] = target: Voltage-gated inwardly rectifying potassium channel KCNH2 (Homo sapiens, UniProt Q12809); experiment: Inhibition of human ERG; assay type: toxicity
Voltage-gated inwardly rectifying potassium channel KCNH2, sequence (Q12809 whole entry): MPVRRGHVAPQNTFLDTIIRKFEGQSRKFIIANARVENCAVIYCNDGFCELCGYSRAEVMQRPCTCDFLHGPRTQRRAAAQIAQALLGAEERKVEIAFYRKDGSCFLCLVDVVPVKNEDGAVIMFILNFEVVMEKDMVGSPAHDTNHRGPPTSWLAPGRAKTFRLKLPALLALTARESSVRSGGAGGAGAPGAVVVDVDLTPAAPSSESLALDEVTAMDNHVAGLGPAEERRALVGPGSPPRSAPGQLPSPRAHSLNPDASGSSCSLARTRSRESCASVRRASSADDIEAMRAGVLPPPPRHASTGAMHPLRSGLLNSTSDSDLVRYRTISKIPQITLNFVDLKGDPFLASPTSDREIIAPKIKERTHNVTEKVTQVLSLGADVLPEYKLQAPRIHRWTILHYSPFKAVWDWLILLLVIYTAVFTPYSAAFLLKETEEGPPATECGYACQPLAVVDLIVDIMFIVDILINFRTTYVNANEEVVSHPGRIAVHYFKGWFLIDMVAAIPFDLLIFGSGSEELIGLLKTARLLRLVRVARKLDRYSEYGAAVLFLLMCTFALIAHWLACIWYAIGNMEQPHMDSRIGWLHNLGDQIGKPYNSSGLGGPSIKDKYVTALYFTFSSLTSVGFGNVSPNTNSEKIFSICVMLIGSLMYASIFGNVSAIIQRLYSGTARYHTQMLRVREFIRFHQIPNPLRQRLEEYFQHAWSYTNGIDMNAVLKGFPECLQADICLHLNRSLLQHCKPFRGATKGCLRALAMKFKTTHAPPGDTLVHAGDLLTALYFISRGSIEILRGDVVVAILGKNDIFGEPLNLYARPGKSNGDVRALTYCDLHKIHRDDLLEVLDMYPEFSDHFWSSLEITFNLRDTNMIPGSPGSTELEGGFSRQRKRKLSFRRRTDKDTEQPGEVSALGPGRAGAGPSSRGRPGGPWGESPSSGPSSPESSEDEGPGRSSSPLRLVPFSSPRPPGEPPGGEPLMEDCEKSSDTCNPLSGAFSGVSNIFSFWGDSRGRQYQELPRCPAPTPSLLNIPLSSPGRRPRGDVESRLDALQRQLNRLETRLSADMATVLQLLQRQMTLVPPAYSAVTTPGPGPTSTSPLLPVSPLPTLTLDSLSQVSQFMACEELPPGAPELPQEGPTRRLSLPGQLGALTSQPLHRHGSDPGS

[4] = Metabolic stability in rat hepatocytes measured per million cells; assay type: ADME, cell-based, Hepatocyte; conditions: read-out: CLH
[5] = Metabolic stability in human hepatocytes measured per million cells; assay type: ADME, cell-based, Hepatocyte; conditions: read-out: CLH
[6] = Clearance in rat; assay type: ADME; conditions: in vivo
[7] = Oral bioavailability in rat; assay type: ADME, organism-based; conditions: in vivo
[8] = target: T1, Monocarboxylate transporter 4 (Homo sapiens, UniProt O15427); experiment: Inhibition of MCT4 in human SK-BR-3 cells assessed as inhibition of lactate efflux incubated for 4 hrs by automated microplate reader analysis; assay type: cell-based
T1 sequence (O15427 whole entry): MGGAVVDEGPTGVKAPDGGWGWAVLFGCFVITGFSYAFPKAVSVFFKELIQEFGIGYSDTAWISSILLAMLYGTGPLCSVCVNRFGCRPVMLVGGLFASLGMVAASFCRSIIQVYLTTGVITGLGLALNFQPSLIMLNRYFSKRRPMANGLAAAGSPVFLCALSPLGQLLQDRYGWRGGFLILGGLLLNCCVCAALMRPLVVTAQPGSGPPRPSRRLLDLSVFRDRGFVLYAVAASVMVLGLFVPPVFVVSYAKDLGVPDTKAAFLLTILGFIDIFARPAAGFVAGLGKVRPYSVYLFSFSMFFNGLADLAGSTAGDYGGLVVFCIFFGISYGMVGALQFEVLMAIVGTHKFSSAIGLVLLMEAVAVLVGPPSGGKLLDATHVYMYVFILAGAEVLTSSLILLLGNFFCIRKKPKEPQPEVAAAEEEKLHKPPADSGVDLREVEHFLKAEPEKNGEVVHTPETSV

[9] = Efflux ratio of apparent permeability basolateral to apical side over apical to basolateral side in human Caco-2 cells; assay type: ADME, cell-based
NCI-H358 = experiment: Antiproliferative activity against human NCI-H358 cells assessed as cell growth inhibition; assay type: functional
[10] = Clearance in Wistar rat at 2 mg/kg, iv; assay type: ADME, organism-based; conditions: in vivo
[11] = Plasma protein binding in dog assessed as free fraction; assay type: ADME, cell-free, Canis lupus familiaris
[12] = Apparent permeability of the compound across apical side to basolateral side in human Caco-2 cells; assay type: ADME, cell-based
[13] = Toxicity in mouse assessed as body weight loss at 100 mg/kg BID administered twice daily for 17 days via oral gavage in presence of cediranib; assay type: organism-based; conditions: in vivo, 408 h, time 17 day
[14] = target: T2, Monocarboxylate transporter 1 (Homo sapiens, UniProt P53985); experiment: Inhibition of MCT1 in human K562 cells assessed as inhibition of lactate efflux incubated for 1 hr by FLIPR method; assay type: cell-based
T2 sequence (P53985 whole entry): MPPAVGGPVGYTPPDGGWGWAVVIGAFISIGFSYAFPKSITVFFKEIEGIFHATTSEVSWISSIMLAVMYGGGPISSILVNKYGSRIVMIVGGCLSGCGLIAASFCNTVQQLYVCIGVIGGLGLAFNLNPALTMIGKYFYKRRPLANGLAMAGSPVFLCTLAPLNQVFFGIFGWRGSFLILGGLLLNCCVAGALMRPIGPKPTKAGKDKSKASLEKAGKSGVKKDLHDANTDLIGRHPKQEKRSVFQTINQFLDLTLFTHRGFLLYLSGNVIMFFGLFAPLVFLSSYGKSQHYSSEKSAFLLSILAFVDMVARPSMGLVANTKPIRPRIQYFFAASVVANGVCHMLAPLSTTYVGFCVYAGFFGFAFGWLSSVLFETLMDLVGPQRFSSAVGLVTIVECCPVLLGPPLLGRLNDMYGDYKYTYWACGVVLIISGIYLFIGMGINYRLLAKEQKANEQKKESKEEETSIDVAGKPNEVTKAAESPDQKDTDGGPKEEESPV

[15] = Oral bioavailability in Beagle dog at 2 mg/kg; assay type: ADME, organism-based, Canis lupus familiaris; conditions: in vivo
[16] = Thermodynamic solubility of the compound in FaSSIF using crystalline form of sample at pH 6.5; assay type: physicochemical; conditions: read-out: Therm_solubility
[17] = Oral bioavailability in Wistar rat at 5 mg/kg; assay type: ADME, organism-based; conditions: in vivo
[18] = Clearance in Beagle dog at 1 mg/kg, iv; assay type: ADME, organism-based, Canis lupus familiaris; conditions: in vivo
[19] = Plasma protein binding in rat assessed as free fraction; assay type: ADME, cell-free
[20] = Metabolic stability in dog hepatocytes assessed as intrinsic clearance measured per million cells; assay type: ADME, cell-based, Canis lupus familiaris, Hepatocyte; conditions: read-out: CLH
[21] = Plasma protein binding in human assessed as free fraction; assay type: ADME, cell-free
[22] = Toxicity in mouse assessed as body weight loss at 100 mg/kg BID administered twice daily for 17 days via oral gavage; assay type: organism-based; conditions: in vivo, 408 h, time 17 day
[23] = Metabolic stability in human hepatocytes assessed as intrinsic clearance measured per million cells; assay type: ADME, cell-based, Hepatocyte; conditions: read-out: CLH

Compound: Cc1nc2nc(C)c(CCNC(=O)c3cnc(-c4ccc([C@@H]5COCCN5C)cc4)cn3)c(C)n2n1
logD [1]: 1.9
solubility [2]: > 300 µM

Compound: Cc1nc2nc(C)c(C[C@@H]3CCN(c4ccc(-c5ccc(CN6CCOCC6)nn5)cc4)C3)c(C)n2n1
logD [1]: 2.3
pIC50 [3]: 4.89

Compound: Cc1nc2nc(C)c(CCNC(=O)c3cnc(-c4ccc([C@H]5COCCN5C)cc4)cn3)c(C)n2n1
logD [1]: 1.9
solubility [2]: 224 µM (≈ 109 µg/mL)

Compound: Cc1nc2nc(C)c(C[C@@H]3CCN(c4cnc(-c5ccc(CN6CCN(C)CC6)cc5)cn4)C3)c(C)n2n1
logD [1]: 2
hepatocyte CLint [4]: < 2 µL/min/1e6 cells
hepatocyte CLint [5]: 1.9 µL/min/1e6 cells
clearance [6]: 29 mL/min/kg
bioavailability [7]: 61%
pIC50 [3]: < 4.62

Compound: CC(=O)N1CCN(Cc2ccc(-c3ccc(N4CC[C@@H](Oc5c(C)nc6nc(C)nn6c5C)C4)cc3)nn2)CC1
logD [1]: 1.4
pIC50 [3]: < 4.48

Compound: Cc1nc2nc(C)c(O[C@@H]3CCN(c4ccc(-c5ccc(CN6CCN(C)CC6)nn5)cc4)C3)c(C)n2n1
logD [1]: 1.4
pIC50 [3]: < 4.48

Compound: Cc1nc2nc(C)c(C[C@@H]3CCN(c4ccc(-c5cnc(CN6CCOCC6)cn5)cc4)C3)c(C)n2n1
logD [1]: 2.7

Compound: Cc1nc2nc(C)c(C[C@@H]3CCN(c4cnc(-c5ccc(CN6CCOCC6)cc5)cn4)C3)c(C)n2n1
logD [1]: 2.6
hepatocyte CLint [4]: 13 µL/min/1e6 cells
hepatocyte CLint [5]: 3.4 µL/min/1e6 cells
clearance [6]: 53 mL/min/kg
bioavailability [7]: 47%
pIC50 [8]: > 9.42
pIC50 [3]: 5.74
efflux ratio [9]: 1.1

Compound: Cc1nc2nc(C)c(C[C@@H]3CCN(c4ccc(-c5ccc(CN6CCN(C)CC6)nn5)cc4)C3)c(C)n2n1
logD [1]: 1.8
pIC50 [3]: < 4.48

Compound: Cc1nc2nc(C)c(O[C@@H]3CCN(c4ccc(-c5ccc(CN6CCOCC6)nn5)cc4)C3)c(C)n2n1
GI50 (NCI-H358): 0.026 µM
clearance [10]: 15 mL/min/kg
logD [1]: 1.8
fraction unbound [11]: 0.39
Papp A→B [12]: 13 ×10⁻⁶ cm/s
Activity [13]: Non-Toxic
pIC50 [14]: < 4.52
bioavailability [15]: 84%
solubility thermodynamic [16]: 839 µM (≈ 420 µg/mL)
bioavailability [17]: 106%
pIC50 [3]: 4.54
clearance [18]: 14 mL/min/kg
fraction unbound [19]: 0.3
hepatocyte CLint [20]: 3.3 µL/min/1e6 cells
fraction unbound [21]: 0.32
Activity [22]: Non-Toxic
hepatocyte CLint [23]: 1.9 µL/min/1e6 cells

Further lines, with some results ahead:

logD [1]: 3.4
solubility [2]: 2 µM (≈ 0.771 µg/mL)
Compound: Cc1nc2nc(C)c(CCNC(=O)c3ccc(-c4ccccc4)cc3)c(C)n2n1

logD [1]: 3.7
Compound: Cc1nc2ncnn2c(C)c1CCC(=O)Nc1nnc(-c2ccc(C(C)C)cc2)s1

logD [1]: 2.4
solubility [2]: 3 µM (≈ 1.16 µg/mL)
Compound: Cc1nc2nc(C)c(CCNC(=O)c3cnc(-c4ccccc4)cn3)c(C)n2n1

logD [1]: 2.8
Compound: Cc1nc2nc(C)c(CCC(=O)Nc3nnc(-c4ccccc4)s3)c(C)n2n1

logD [1]: 2.5
Compound: Cc1nc2nc(C)c(CCNC(=O)c3nnc(-c4ccccc4)s3)c(C)n2n1

logD [1]: 2.5
Compound: Cc1nc2ncnn2c(C)c1CCC(=O)Nc1nnc(-c2ccccc2)s1

logD [1]: 1.8
hepatocyte CLint [4]: 17 µL/min/1e6 cells
hepatocyte CLint [5]: 2.5 µL/min/1e6 cells
clearance [6]: 31 mL/min/kg
solubility [2]: 138 µM (≈ 67.1 µg/mL)
bioavailability [7]: 34%
Compound: Cc1nc2nc(C)c(CCNC(=O)c3cnc(-c4ccc(CN5CCOCC5)cc4)cn3)c(C)n2n1
pIC50 [3]: 4.62
